The assay concerns the target T1, TNKS2 (Homo sapiens, UniProt Q9H2K2).
T1 construct: purchased BPS Bioscience, San Diego, USA 80572 (TNKS2 Histone Ribosylation Assay Kit)
T1 sequence (Q9H2K2 1-1166): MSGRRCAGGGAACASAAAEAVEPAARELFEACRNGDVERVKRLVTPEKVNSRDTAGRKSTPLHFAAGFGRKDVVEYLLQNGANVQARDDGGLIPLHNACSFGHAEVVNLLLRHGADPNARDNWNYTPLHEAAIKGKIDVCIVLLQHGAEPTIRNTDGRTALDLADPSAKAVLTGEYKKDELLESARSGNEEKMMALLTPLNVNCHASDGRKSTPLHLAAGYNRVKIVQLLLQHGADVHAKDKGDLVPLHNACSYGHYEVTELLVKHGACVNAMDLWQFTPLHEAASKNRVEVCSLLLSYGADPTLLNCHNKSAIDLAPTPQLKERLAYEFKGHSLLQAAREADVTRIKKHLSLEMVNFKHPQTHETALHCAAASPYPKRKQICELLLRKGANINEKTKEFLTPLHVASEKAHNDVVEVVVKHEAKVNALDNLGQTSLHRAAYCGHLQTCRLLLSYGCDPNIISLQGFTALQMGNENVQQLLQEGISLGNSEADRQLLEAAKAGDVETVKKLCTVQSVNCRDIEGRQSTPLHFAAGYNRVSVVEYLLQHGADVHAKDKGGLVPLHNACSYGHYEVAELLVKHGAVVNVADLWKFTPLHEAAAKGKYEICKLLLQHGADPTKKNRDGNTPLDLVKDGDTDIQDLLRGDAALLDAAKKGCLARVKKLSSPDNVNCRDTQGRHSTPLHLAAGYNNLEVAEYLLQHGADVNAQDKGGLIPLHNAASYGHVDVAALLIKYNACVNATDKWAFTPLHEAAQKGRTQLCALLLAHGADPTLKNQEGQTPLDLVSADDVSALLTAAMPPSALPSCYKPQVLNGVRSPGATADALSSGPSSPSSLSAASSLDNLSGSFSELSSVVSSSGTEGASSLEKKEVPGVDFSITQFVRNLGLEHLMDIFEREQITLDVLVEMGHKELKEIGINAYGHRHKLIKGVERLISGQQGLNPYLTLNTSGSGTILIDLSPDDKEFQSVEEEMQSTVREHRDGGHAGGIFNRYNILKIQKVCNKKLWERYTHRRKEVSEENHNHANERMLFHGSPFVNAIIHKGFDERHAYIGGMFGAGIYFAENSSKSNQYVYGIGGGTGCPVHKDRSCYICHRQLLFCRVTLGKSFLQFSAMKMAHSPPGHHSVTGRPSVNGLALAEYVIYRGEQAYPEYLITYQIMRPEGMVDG
Kind of assay: TNKS2 Assay B (auto-parsylation, [3H]-NAD+ SPA). It counts as biochemical. To be noted: 6 nM TNKS2, auto-parsylation, over night at room temperature.

By IC50 is commonly meant the point on the concentration scale where inhibition reaches its midpoint. A higher IC50 goes with weaker potency in that assay.

With `Cc1cc(C)n2ncc(C(=O)N[C@H]3CC[C@@]4(CCN(c5cc(C)c(F)cc5Cl)C4=O)CC3)c2n1` [Example 266, N-[(trans)-2-(2-chloro-4-fluoro-5-methylphenyl)-1-oxo-2-azaspiro[4.5]dec-8-yl]-5,7-dimethylpyrazolo[1,5-a]pyrimidine-3-carboxamide], the midpoint of inhibition, the IC50, lay at 6.8 nM.

Molecule `Cc1cc(N2CC[C@]3(CC[C@@H](NC(=O)c4cnn5cccnc45)CC3)C2=O)c(Cl)cc1F` [Example 267, N-[(trans)-2-(2-chloro-4-fluoro-5-methylphenyl)-1-oxo-2-azaspiro[4.5]dec-8-yl]pyrazolo[1,5-a]pyrimidine-3-carboxamide] showed an IC50 of 5.2 nM.

With `O=C(N[C@H]1CC[C@@]2(CCN(c3cccc(Cl)c3)C2=O)CC1)c1cnn2cccnc12` [Example 268, N-[(trans)-2-(3-chlorophenyl)-1-oxo-2-azaspiro[4.5]dec-8-yl]pyrazolo[1,5-a]pyrimidine-3-carboxamide], the midpoint of inhibition, the IC50, lay at 230 nM.

For the molecule `O=C(N[C@H]1CC[C@@]2(CCN(c3cccc(Cl)c3)C2=O)CC1)c1cnc2cccnn12` [Example 269, N-[(trans)-2-(3-chlorophenyl)-1-oxo-2-azaspiro[4.5]dec-8-yl]imidazo[1,2-b]pyridazine-3-carboxamide], the IC50 was 290 nM.

With `Cc1cc(C)n2ncc(C(=O)N[C@H]3CC[C@@]4(CCN(c5cccc(Cl)c5)C4=O)CC3)c2n1` [Example 270, N-[(trans)-2-(3-chlorophenyl)-1-oxo-2-azaspiro[4.5]dec-8-yl]-5,7-dimethylpyrazolo[1,5-a]pyrimidine-3-carboxamide], 280 nM corresponded to half-maximal inhibition (IC50).

With `O=C(N[C@H]1CC[C@@]2(CCN(c3ccccc3Cl)C2=O)CC1)c1cnc2cccnn12` [Example 271, N-[(trans)-2-(2-chlorophenyl)-1-oxo-2-azaspiro[4.5]dec-8-yl]imidazo[1,2-b]pyridazine-3-carboxamide], the IC50 came to 5.9 nM.

`CNC(=O)c1nc[nH]c1C(=O)N[C@H]1CC[C@@]2(CCN(c3cccc(Cl)c3)C2=O)CC1` [Example 276, N^5-[(trans)-2-(3-chlorophenyl)-1-oxo-2-azaspiro[4.5]dec-8-yl]-N^4-methyl-1H-imidazole-4,5-dicarboxamide] showed an IC50 of 89 nM.

`CCNC(=O)c1nc[nH]c1C(=O)N[C@H]1CC[C@@]2(CCN(c3cccc(Cl)c3)C2=O)CC1` [Example 277, N^5-[(trans)-2-(3-chlorophenyl)-1-oxo-2-azaspiro[4.5]dec-8-yl]-N^4-ethyl-1H-imidazole-4,5-dicarboxamide] yielded an IC50 of 150 nM.

`CC(C)NC(=O)c1nc[nH]c1C(=O)N[C@H]1CC[C@@]2(CCN(c3cccc(Cl)c3)C2=O)CC1` [Example 278, N^5-[(trans)-2-(3-chlorophenyl)-1-oxo-2-azaspiro[4.5]dec-8-yl]-N^4-(propan-2-yl)-1H-imidazole-4,5-dicarboxamide] yielded an IC50 of 170 nM.

The molecule `O=C(NC1CC1)c1nc[nH]c1C(=O)N[C@H]1CC[C@@]2(CCN(c3cccc(Cl)c3)C2=O)CC1` [Example 279, N^5-[(trans)-2-(3-chlorophenyl)-1-oxo-2-azaspiro[4.5]dec-8-yl]-N^4-cyclopropyl-1H-imidazole-4,5-dicarboxamide] registered an IC50 of 170 nM.

In turn, `O=C(N[C@H]1CC[C@@]2(CCN(c3cccc(Cl)c3)C2=O)CC1)c1[nH]cnc1C(=O)N1CC(F)C1` [Example 280, N-[(trans)-2-(3-chlorophenyl)-1-oxo-2-azaspiro[4.5]dec-8-yl]-4-[(3-fluoroazetidin-1-yl)carbonyl]-1H-imidazole-5-carboxamide] returned an IC50 of 94 nM.

In turn, `O=C(NCC(F)(F)F)c1nc[nH]c1C(=O)N[C@H]1CC[C@@]2(CCN(c3cccc(Cl)c3)C2=O)CC1` [Example 281, N^5-[(trans)-2-(3-chlorophenyl)-1-oxo-2-azaspiro[4.5]dec-8-yl]-N^4-(2,2,2-trifluoroethyl)-1H-imidazole-4,5-dicarboxamide] returned an IC50 of 280 nM.

As to `COCCNC(=O)c1nc[nH]c1C(=O)N[C@H]1CC[C@@]2(CCN(c3cccc(Cl)c3)C2=O)CC1` [Example 282, N^5-[(trans)-2-(3-chlorophenyl)-1-oxo-2-azaspiro[4.5]dec-8-yl]-N^4-(2-methoxyethyl)-1H-imidazole-4,5-dicarboxamide], the midpoint of inhibition, the IC50, lay at 160 nM.

Source of the values: patent US20180148418A1, “AMIDO-SUBSTITUTED CYCLOHEXANE DERIVATIVES” (Bayer Pharma Aktiengesellschaft, priority 2015, published 2018).
